From article PMC4501059, “Responding to the challenge of untreatable gonorrhea: ETX0914, a first-in-class agent with a distinct mechanism-of-action against bacterial Type II topoisomerases” (Scientific Reports, 2015)
≈ marks a conversion by molar mass, not a printed value. Like-named read-outs stand apart in the source and are kept apart here.

Experiments:
S. pneumoniae ATCC49619 = assay: MIC (CLSI broth microdilution); type: cell-based
[1] = Single dose pharmacokinetics, monkey; type: in vivo; details: plasma, Cynomologus monkey (male)
Procedure: AZD0914 was analyzed in mouse, rat, dog, monkey plasma using a qualified method which was later validated for human plasma analysis. The validated human method is described below and is representative of the approach taken in other species. AZD0914 was determined in human plasma prepared with K2EDTA as an anticoagulant. AZD0914 and an internal standard (^13C2, ^15N2 AZD0914) were extracted from plasma with tert- butyl methyl ether. After evaporating to dryness under a stream of nitrogen, the residue was reconstituted and quantitated by reverse phase HPLC-MS/MS against a standard curve from 1.00 to 5000 ng/ml. Separation was achieved using a gradient which went from 55% to 85% methanol:acetonitrile (1:1) containing 0.2% formic acid as mobile phase B and 0.2% formic acid in water as mobile phase A at a flow rate of 0.60 ml/min through a Phenomonex Gemini C18 column (50 x 2.0 mm column, […]) heated using a Shimadzu CTO-20AC set to 40 °C. AZD0914 was detected in multiple reaction monitoring (MRM) mode by positive ion electrospray ionization using a Sciex API5500 (Toronto, Canada) mass spectrometer. The ion spray voltage was set to 5500 V and turboionspray temperature was 650 °C. AZD0914 was quantitated using the MRM transition 488.2 → 348.2 using a collision energy of 29 eV. The internal standard, (^13C2, ^15N2 AZD0914), was monitored using identical conditions except for the MRM transition of 492.2 → 348.2.

[2] = Quantitative whole-body autoradiography, tissue distribution of radioactivity; type: in vivo, male pigmented Lister Hood rat; details: rat plasma after iv infusion of 14C label
Procedure: Quantitative whole-body autoradiography. The distribution of radioactivity in male, pigmented Lister Hood rat tissues was obtained after a single intravenous infusion over 15 minutes of ^14C-AZD0914 at 25 mg/kg (51 μmol/kg, 5 MBq/kg) using quantitative whole-body autoradiography with phosphor-imaging technology. The potential of this compound and/or its metabolites to bind to melanin-containing tissues and/or to potentially bind covalently to tissues was also evaluated. The rats were sacrificed at 5 minutes, 1 hour, 4 hours, 24 hours, 48 hours, 7 days and 21 days after the end of infusion with enflurane (Efrane®, Abbott Laboratories, USA), and frozen in acetone, cooled to -70 °C with solid CO2. The 7- and 21- day animals could not be quantified as no trace of radioactivity was observed. After removal of limbs and tail, the carcass was embedded, with left lateral side uppermost, in a 2.5% (w/v) aqueous solution of caramellosum natricum and frozen for at least 10 minutes. The animal blocks were stored at -20 °C until sectioning. Sagittal whole-body sections (30 μm) were obtained to include organs and tissues of interest. At sectioning each block was mounted in a Leica CM3600 Cryomacrotome (Leica Microsystems GmbH, Germany) maintained at approximately -20 °C. All sections were dried at -20 °C for at least 1 day prior to exposure on phosphor-imaging plates. Together with two sets of calibration standards, the sections were placed on phosphor-imaging plates, which had been pre-covered with a thin plastic film. The imaging plates were exposed for 1 to 3 days at +4 to +12 °C, enclosed in light tight cassettes in a lead shielding box to protect from environmental radiation. Following exposure, the imaging plates were scanned at a pixel size of 50 μm using FLA-7000 (FujiFilm Sverige AB, Sweden). The tissues and organs of interest were quantified using AIDA 3.5 (Raytest, Germany). The quantification limit was defined as twice the background value of the imaging plate and varied between the plates from 0.23 to 0.33 nmol/g. The various tissues and organs were identified either on the autoradiograms or on the corresponding tissue sections.

Iks/Kv7.1 = Iks/Kv7.1 (Homo sapiens, UniProt P51787); assay: In vitro ion channel function; type: cell-based; details: Iks/Kv7.1 IC50, Slowly activating K^+ delayed rectifier
Iks/Kv7.1, sequence (P51787 whole entry): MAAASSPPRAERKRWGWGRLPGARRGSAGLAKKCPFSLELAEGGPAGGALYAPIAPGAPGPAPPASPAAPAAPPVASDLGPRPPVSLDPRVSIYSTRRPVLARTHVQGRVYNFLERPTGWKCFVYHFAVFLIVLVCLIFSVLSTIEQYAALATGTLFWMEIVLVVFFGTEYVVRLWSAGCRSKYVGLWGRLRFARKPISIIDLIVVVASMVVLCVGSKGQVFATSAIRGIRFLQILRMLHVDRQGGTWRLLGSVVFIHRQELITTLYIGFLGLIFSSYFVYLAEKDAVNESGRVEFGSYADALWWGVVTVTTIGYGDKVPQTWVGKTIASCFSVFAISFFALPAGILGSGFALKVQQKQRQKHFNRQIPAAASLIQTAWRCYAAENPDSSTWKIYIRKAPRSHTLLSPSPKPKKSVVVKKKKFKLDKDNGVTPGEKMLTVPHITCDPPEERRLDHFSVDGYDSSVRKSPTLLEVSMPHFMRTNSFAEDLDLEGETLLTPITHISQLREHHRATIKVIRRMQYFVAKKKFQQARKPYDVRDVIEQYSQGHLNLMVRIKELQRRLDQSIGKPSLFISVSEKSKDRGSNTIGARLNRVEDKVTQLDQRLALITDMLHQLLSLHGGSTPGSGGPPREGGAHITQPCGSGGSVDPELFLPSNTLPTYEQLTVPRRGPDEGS
Excerpt: (§1) Supplement srep11827-s1.doc, table 3 | column: Table S2: In vitro ion channel function IC50 (µM)

Ito/Kv4.3 = biological target: T1, Ito/Kv4.3 (Homo sapiens, UniProt Q9UK17); assay: In vitro ion channel function; type: cell-based; details: Ito/Kv4.3 IC50, Transient outward K^+ early repolarization
T1 sequence (Q9UK17 1-655): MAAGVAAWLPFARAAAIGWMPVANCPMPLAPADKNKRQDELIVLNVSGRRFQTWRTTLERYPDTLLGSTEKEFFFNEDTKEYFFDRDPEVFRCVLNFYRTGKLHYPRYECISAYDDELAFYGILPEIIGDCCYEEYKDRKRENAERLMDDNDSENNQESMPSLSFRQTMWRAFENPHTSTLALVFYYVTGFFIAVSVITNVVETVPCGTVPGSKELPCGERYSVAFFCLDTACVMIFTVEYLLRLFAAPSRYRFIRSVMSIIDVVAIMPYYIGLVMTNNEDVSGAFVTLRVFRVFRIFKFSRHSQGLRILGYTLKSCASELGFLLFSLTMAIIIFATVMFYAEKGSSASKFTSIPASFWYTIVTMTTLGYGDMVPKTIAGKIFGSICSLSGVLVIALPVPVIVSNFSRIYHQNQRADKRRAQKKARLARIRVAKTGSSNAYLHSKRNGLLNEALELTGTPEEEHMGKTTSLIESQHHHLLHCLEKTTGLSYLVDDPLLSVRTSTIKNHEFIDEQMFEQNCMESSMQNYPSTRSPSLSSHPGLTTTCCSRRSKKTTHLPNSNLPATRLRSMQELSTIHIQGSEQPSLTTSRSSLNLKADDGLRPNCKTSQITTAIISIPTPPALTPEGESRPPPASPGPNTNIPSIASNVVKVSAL
Excerpt: as §1

Kv1.5 = Kv1.5 (Homo sapiens, UniProt P22460); assay: In vitro ion channel function; type: cell-based; details: Ikr/Kv1.5 IC50, Rapidly activating K^+ delayed rectifier
Kv1.5, sequence (P22460 whole entry): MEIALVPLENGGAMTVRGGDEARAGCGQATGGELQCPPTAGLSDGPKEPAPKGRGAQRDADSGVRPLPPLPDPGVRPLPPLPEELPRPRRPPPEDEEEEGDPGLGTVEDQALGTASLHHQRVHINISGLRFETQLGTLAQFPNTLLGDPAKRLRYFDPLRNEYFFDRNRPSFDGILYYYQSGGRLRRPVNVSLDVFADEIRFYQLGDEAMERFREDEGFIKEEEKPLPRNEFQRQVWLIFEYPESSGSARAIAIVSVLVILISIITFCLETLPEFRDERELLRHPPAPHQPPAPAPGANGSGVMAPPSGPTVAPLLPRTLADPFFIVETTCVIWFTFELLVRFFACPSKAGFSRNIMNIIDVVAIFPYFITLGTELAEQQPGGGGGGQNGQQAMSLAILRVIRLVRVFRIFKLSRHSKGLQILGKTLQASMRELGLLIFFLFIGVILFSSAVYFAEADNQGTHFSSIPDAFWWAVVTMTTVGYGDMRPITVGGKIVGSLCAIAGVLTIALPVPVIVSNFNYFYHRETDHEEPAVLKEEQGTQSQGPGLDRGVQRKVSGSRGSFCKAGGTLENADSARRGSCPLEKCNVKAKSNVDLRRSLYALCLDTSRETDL
Excerpt: as §1

hNav1.5 = hNav1.5 (Homo sapiens, UniProt Q14524); assay: In vitro ion channel function; type: cell-based; details: hNav1.5 IC50, Initiation of cardiac action potential/QRS interval
hNav1.5, sequence (Q14524 whole entry): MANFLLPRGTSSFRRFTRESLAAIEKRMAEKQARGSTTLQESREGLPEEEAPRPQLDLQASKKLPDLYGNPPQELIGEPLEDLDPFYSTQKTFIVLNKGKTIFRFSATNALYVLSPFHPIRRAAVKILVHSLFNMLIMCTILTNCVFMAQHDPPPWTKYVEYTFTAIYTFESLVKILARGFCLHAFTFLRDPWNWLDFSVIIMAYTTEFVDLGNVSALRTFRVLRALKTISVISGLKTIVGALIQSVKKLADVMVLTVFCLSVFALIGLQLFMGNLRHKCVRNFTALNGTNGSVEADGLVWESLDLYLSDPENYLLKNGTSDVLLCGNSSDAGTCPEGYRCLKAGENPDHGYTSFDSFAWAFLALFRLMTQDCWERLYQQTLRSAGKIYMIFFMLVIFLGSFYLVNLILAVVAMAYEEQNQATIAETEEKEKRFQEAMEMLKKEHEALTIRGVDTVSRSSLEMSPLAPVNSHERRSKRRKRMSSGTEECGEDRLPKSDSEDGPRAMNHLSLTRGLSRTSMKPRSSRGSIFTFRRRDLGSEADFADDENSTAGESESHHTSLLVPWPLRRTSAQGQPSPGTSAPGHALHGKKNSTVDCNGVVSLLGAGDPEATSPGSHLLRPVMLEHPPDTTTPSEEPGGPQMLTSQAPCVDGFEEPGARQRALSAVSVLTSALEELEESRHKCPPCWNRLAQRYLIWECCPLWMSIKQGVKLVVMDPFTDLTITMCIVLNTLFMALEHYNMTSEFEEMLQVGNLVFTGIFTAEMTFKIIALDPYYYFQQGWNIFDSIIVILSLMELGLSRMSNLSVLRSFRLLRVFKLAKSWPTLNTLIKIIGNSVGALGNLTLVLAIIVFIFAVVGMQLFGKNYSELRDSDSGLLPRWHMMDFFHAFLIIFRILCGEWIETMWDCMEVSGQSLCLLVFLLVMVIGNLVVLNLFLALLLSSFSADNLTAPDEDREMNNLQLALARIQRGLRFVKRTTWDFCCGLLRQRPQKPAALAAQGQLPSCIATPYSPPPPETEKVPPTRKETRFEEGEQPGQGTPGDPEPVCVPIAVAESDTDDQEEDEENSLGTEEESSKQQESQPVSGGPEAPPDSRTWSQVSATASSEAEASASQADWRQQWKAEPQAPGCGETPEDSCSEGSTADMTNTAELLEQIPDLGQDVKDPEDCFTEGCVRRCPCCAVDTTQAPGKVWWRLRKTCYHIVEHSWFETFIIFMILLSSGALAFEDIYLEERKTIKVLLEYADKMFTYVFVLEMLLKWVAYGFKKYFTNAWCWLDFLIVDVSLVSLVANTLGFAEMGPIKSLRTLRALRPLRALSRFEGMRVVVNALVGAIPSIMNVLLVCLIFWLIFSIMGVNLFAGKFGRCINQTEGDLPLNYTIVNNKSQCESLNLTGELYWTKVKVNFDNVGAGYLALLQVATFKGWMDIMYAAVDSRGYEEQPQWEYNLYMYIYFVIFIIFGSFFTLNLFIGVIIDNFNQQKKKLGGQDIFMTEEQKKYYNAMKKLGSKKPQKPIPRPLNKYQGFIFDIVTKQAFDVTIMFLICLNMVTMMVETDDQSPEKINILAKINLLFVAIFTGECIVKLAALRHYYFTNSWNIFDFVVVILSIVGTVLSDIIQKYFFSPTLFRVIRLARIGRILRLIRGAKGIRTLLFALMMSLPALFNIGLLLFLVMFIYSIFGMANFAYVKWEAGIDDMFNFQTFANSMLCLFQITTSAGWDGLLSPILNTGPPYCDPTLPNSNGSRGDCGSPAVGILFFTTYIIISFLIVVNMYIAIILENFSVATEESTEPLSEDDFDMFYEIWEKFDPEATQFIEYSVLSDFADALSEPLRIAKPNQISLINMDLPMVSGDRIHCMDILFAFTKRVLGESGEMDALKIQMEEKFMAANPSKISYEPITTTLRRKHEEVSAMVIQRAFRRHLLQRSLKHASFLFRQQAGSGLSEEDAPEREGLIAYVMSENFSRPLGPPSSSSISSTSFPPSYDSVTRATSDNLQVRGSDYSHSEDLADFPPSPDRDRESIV
Excerpt: as §1

Ureaplasma spp. = tested on: Ureaplasma spp.; parameters: method as in ref 3 (supplement); details: 21 tested; ref 3 (supplement); cited from earlier work
[3] = Human plasma protein binding (PPB); details: plasma
[4] = comparative haematology analysis in the rat, oral dosing; details: for AUC: Han Wistar, in vivo, po; for AUC / haematology versus vehicle control: rat; for haematology versus vehicle control: 28 d

What does the source list for `C[C@@H]1CN2c3c(cc4c(N5C(=O)OC[C@@H]5C)noc4c3F)CC3(C(=O)NC(=O)NC3=O)[C@H]2[C@H](C)O1` [ETX0914]?
MIC: S. pneumoniae ATCC49619 (S. pneumoniae ATCC49619): 0.125 µg/mL (≈ 0.256 µM); clearance ([1]; IV 2.5 mg/kg, read-out: Clp (IV)): 12 mL/min/kg; half-life ([1]; IV 2.5 mg/kg, read-out: T1/2 (IV) (converted)): 1.6 h; Vd ([1]; IV 2.5 mg/kg, read-out: Vss (IV)): 1.3 L/kg; bioavailability ([1]; IV 2.5 / PO 5 mg/kg): 58%; Cmax ([1]; PO 5 mg/kg): 6.5 µM; half-life ([1]; PO 5 mg/kg, read-out: T1/2 (PO) (converted)): 1.6 h; share of circulating radioactivity in plasma accounted for by parent [2]: ~ 90%; IC50 (Iks/Kv7.1): > 333 µM; IC50 (Ito/Kv4.3): 216 µM; IC50 (Kv1.5): > 333 µM; IC50 (hNav1.5): > 333 µM; MIC90 (Ureaplasma spp.): 1.0^3 µg/ml; MIC Range (Ureaplasma spp.): 0.125 to 2 µg/mL; fraction unbound [3]: 0.17; AUC ([4]; 200 mg/kg): 1100 ± 130 µM·h; AUC ([4]; 500 mg/kg): 2460 ± 470 µM·h; AUC ([4]; 1000 mg/kg): 3820 ± 650 µM·h; platelet count ([4]; data not shown): no significant changes in platelet count; haematology versus vehicle control ([4]; 2 lower doses (200, 500 mg/kg)): within statistical equivalence of the vehicle control; haematology versus vehicle control ([4]; highest dose (1000 mg/kg)): statistical elevation in reticulocytes, lymphocytes and white blood cells
